Here are results for 28 compounds from patent publication US20260325533A1, “CDK INHIBITOR COMPOUNDS” (ALEKSIA THERAPEUTICS, INC., priority 2023, published 2026).

Assay [1] deals with CDK1/CCNB1 (Homo sapiens, UniProt P06493). Description: CDK1 homogeneous time-resolved fluorescence (HTRF) kinase assay. The format is biochemical. The gist of the method:
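High-ATP (1 mM) HTRF assay with 0.5 nM CDK1/cyclin B1 and 50 nM ULight-4E-BP1 (Thr37/46) substrate, 60 min at 23 °C after 20-min compound preincubation. IC50 values come from dose-response curves.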
(In general: TR-FRET usually uses a lanthanide donor and a delayed reading to cut background.)

Assay [2] deals with CDK2/CCNE1 (Homo sapiens, UniProt P24941). Description: CDK2 homogeneous time-resolved fluorescence (HTRF) kinase assay. Format: biochemical. The method, boiled down: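 TR-FRET read-out (665 nm, or 665/615 ratio) of Eu-antibody detection of phospho-4E-BP1 (Thr37/46) ULight peptide. Enzyme 3 nM, ATP 1 mM, peptide 50 nM, 1% DMSO; 60 min reaction at 23 °C after 20 min compound preincubation. IC50 from 11-point half-log titrations, top typically 10 μM.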

[3] abbreviates: CDK1/CCNB, >250 nM marked x, read-out: CDK1/CCNB IC50 >250 nM.
The mark [4] stands for this setting: CDK2/CCNE, >250 nM marked x, read-out: CDK2/CCNE IC50 >250 nM.
Setting [5] is: CDK2/CCNE, 25-250 nM marked x, read-out: CDK2/CCNE IC50 25-250 nM.
Where [6] appears, read: CDK1/CCNB, 25-250 nM marked x, read-out: CDK1/CCNB IC50 25-250 nM.
Setting [7] is: CDK2/CCNE, <25 nM, read-out: CDK2/CCNE IC50 <25 nM.

Where two headings read alike, the source gives them in different places.

Chain of CDK1/CCNB1 (P06493 whole entry): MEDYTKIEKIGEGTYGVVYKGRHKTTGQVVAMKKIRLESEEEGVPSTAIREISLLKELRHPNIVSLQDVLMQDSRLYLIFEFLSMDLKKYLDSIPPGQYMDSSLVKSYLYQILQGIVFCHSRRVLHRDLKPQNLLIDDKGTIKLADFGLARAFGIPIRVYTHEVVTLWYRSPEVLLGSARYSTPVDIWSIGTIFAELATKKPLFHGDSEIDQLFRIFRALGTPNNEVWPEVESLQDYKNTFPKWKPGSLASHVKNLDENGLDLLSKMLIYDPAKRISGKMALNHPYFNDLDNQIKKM
Chain of CDK1/CCNB1 (P14635 whole entry partner): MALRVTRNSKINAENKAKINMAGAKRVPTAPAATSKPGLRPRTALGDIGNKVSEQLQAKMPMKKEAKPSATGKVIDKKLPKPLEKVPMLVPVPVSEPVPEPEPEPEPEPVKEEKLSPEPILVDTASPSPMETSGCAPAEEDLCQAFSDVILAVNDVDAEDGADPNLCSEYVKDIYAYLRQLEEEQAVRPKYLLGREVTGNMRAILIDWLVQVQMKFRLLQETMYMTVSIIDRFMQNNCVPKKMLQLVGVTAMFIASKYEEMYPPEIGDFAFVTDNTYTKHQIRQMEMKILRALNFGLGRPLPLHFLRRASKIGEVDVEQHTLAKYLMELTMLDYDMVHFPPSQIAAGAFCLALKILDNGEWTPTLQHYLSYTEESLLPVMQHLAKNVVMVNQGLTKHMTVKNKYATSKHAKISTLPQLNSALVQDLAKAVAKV

On to `CC(C)NC(=O)[C@H]1CC[C@H](c2nccc3cnc(Nc4ccc(S(C)(=O)=O)cc4)cc32)CC1` [Ex 181, (1r,4r)-N-isopropyl-4-(7-((4-(methylsulfonyl)phenyl)amino)-2,6-naphthyridin-1-yl)cyclohexane-1-carboxamide], for which the IC50 in assay [1] (setting [3]) and in assay [2] (setting [4]) was more than 250 nM throughout.

As for `Cc1c(-c2nccc3cnc(Nc4ccc(S(C)(=O)=O)cc4)cc23)ccc2c1cnn2C1CCNCC1` [Ex 182, 5-(4-methyl-1-(piperidin-4-yl)-1H-indazol-5-yl)-N-(4-(methylsulfonyl)phenyl)-2,6-naphthyridin-3-amine], the values for the IC50 in assay [1] (setting [3]) and in assay [2] (setting [5]) were more than 250 nM and 25 to 250 nM, respectively.

Take `CS(=O)(=O)c1ccc(Nc2cc3c(N4CCCCC4)nc(C=O)cc3cn2)cc1` [Ex 186, 7-((4-(methylsulfonyl)phenyl)amino)-1-(piperidin-1-yl)-2,6-naphthyridine-3-carbaldehyde]: the IC50 was more than 250 nM in assay [1] (setting [3]) and 25 to 250 nM in assay [2] (setting [5]).

Regarding `C=CS(=O)(=O)c1ccc(Nc2cc3c(N4CC(C#N)C4)nccc3cn2)cc1` [Ex 188, 1-(7-((4-(vinylsulfonyl)phenyl)amino)-2,6-naphthyridin-1-yl)azetidine-3-carbonitrile], the values for the IC50 in assay [1] (setting [3]) and in assay [2] (setting [5]) were more than 250 nM and 25 to 250 nM, respectively.

As to `Cc1c(-c2nccc3cnc(Nc4ccc(S(C)(=O)=O)cc4)cc23)ccc2c1cnn2CCC#N` [Ex 194, 3-(4-methyl-5-(7-((4-(methylsulfonyl)phenyl)amino)-2,6-naphthyridin-1-yl)-1H-indazol-1-yl)propanenitrile], the IC50 in assay [1] (setting [3]) is more than 250 nM; in assay [2] (setting [5]), 25 to 250 nM.

On to `Cc1c(-c2nccc3cnc(Nc4ccc(S(C)(=O)=O)cc4)cc23)ccc2nn(CC3CNC3)cc12` [Ex 196, 5-(2-(azetidin-3-ylmethyl)-4-methyl-2H-indazol-5-yl)-N-(4-(methylsulfonyl)phenyl)-2,6-naphthyridin-3-amine], for which the IC50 in assay [1] (setting [3]) is more than 250 nM; in assay [2] (setting [5]), 25 to 250 nM.

Take `Cc1c(-c2nccc3cnc(Nc4ccc(S(C)(=O)=O)cc4)cc23)ccc2nn(CCC#N)cc12` [Ex 197, 3-(4-methyl-5-(7-((4-(methylsulfonyl)phenyl)amino)-2,6-naphthyridin-1-yl)-2H-indazol-2-yl)propanenitrile]: the IC50 was more than 250 nM in assay [1] (setting [3]) and 25 to 250 nM in assay [2] (setting [5]).

Regarding `C=CS(=O)(=O)c1ccc(Nc2cc3c(-c4ccc5[nH]ncc5c4)nccc3cn2)cc1` [Ex 205, 5-(1H-indazol-5-yl)-N-(4-(vinylsulfonyl)phenyl)-2,6-naphthyridin-3-amine], the IC50 in assay [1] (setting [3]) was more than 250 nM; in assay [2] (setting [5]), 25 to 250 nM.

Consider `Cc1c(-c2nccc3cnc(Nc4ccc(S(C)(=O)=O)cc4)cc23)ccc2nn(CCC3CNC3)cc12` [Ex 208, 5-(2-(2-(azetidin-3-yl)ethyl)-4-methyl-2H-indazol-5-yl)-N-(4-(methylsulfonyl)phenyl)-2,6-naphthyridin-3-amine], for which the IC50 in assay [1] (setting [3]) was more than 250 nM; in assay [2] (setting [5]) it was 25 to 250 nM.

Regarding `C=CS(=O)(=O)c1ccc(Nc2cc3c(-c4cc5cn[nH]c5cc4C)nccc3cn2)cc1` [Ex 209, 5-(6-methyl-1H-indazol-5-yl)-N-(4-(vinylsulfonyl)phenyl)-2,6-naphthyridin-3-amine], the IC50 was more than 250 nM in assay [1] (setting [3]) and 25 to 250 nM in assay [2] (setting [5]).

`N#CC1CCN(c2nccc3cnc(Nc4ccc(O)c(CO)c4)cc23)CC1` [Ex 210, 1-(7-((4-hydroxy-3-(hydroxymethyl)phenyl)amino)-2,6-naphthyridin-1-yl)piperidine-4-carbonitrile]: the IC50 in assay [1] (setting [6]) and in assay [2] (setting [5]) was 25 to 250 nM each time.

With `CC1(C#N)CCN(c2nccc3cnc(NC4CCN(S(C)(=O)=O)CC4)cc23)CC1` [Ex 212, 4-methyl-1-(7-((1-(methylsulfonyl)piperidin-4-yl)amino)-2,6-naphthyridin-1-yl)piperidine-4-carbonitrile], the figures for the IC50 in assay [1] (setting [3]) and in assay [2] (setting [5]) were more than 250 nM and 25 to 250 nM, respectively.

`N#CC1CCN(c2nccc3cnc(Nc4cccc(C(=O)ON5C(=O)CCC5=O)c4)cc23)CC1` [Ex 258, 2,5-dioxopyrrolidin-1-yl 3-((5-(4-cyanopiperidin-1-yl)-2,6-naphthyridin-3-yl)amino)benzoate]: the IC50 in assay [1] (CDK1/CCNB, <25 nM, read-out: CDK1/CCNB IC50 <25 nM) was less than 25 nM; in assay [2] (setting [7]) it was less than 25 nM.

Consider `CS(=O)(=O)c1ccc(Nc2cc3c(N4CCC(C#N)CC4)nccc3cn2)cc1` [Ex 259, 1-(7-((4-(methylsulfonyl)phenyl)amino)-2,6-naphthyridin-1-yl)piperidine-4-carbonitrile], for which the IC50 in assay [1] (setting [3]) was more than 250 nM; in assay [2] (setting [5]) it was 25 to 250 nM.

In the case of `Cc1cc2c(cnn2C)cc1-c1nccc2cnc(NC3CCN(S(C)(=O)=O)CC3)cc12` [Ex 262, 5-(1,6-dimethyl-1H-indazol-5-yl)-N-(1-(methylsulfonyl)piperidin-4-yl)-2,6-naphthyridin-3-amine], the IC50 in assay [1] (setting [6]) was 25 to 250 nM; in assay [2] (setting [7]), less than 25 nM.

For the compound `Cn1cc(-c2nccc3cnc(NC4CCN(S(C)(=O)=O)CC4)cc23)cn1` [Example 4, 5-(1-methyl-1H-pyrazol-4-yl)-N-(1-(methylsulfonyl)piperidin-4-yl)-2,6-naphthyridin-3-amine], the IC50 is more than 250 nM in assay [1] (setting [3]) and 25 to 250 nM in assay [2] (setting [5]).

Turning to `COc1nccc2cnc(NC3CCN(S(C)(=O)=O)CC3)cc12` [Example 5, 5-methoxy-N-(1-(methylsulfonyl)piperidin-4-yl)-2,6-naphthyridin-3-amine], the IC50 in assay [1] (setting [3]) was more than 250 nM; in assay [2] (setting [5]) it was 25 to 250 nM.

Regarding `CS(=O)(=O)N1CCC(Nc2cc3c(-c4ccccn4)nccc3cn2)CC1` [Example 8, N-(1-(methylsulfonyl)piperidin-4-yl)-5-(pyridin-2-yl)-2,6-naphthyridin-3-amine], the IC50 in assay [1] (setting [3]) is more than 250 nM; in assay [2] (setting [5]) it was 25 to 250 nM.

Consider `C=CS(=O)(=O)N1CCC(Nc2cc3c(N4CCCCC4)nccc3cn2)C1` (centres unmarked) [Example 9, 5-(piperidin-1-yl)-N-(1-(vinylsulfonyl)pyrrolidin-3-yl)-2,6-naphthyridin-3-amine], for which the IC50 in assay [1] (setting [3]) and in assay [2] (setting [4]) was more than 250 nM each time.

With `C=CS(=O)(=O)N1CCC(Nc2cc3c(N4CCC(F)(F)CC4)nccc3cn2)CC1` [Example 10, 5-(4,4-difluoropiperidin-1-yl)-N-(1-(vinylsulfonyl)piperidin-4-yl)-2,6-naphthyridin-3-amine], the IC50 in assay [1] (setting [3]) is more than 250 nM; in assay [2] (setting [5]) it was 25 to 250 nM.

Take `CS(=O)(=O)N1CCC(Nc2cc3c(C(=O)N4CCC(O)CC4)nccc3cn2)CC1` [Example 12, (4-hydroxypiperidin-1-yl)(7-((1-(methylsulfonyl)piperidin-4-yl)amino)-2,6-naphthyridin-1-yl)methanone]: the IC50 in assay [1] (setting [3]) and in assay [2] (setting [4]) was more than 250 nM each time.

Consider `N#CC1CCN(c2nccc3cnc(Nc4cccc(OS(=O)(=O)F)c4)cc23)CC1` [Example 13, 3-((5-(4-cyanopiperidin-1-yl)-2,6-naphthyridin-3-yl)amino)phenyl sulfurofluoridate], for which the IC50 in assay [1] and in assay [2] was more than 250 nM in each case.

As for `N#CC1CCN(c2nccc3cnc(Nc4ccc(OS(=O)(=O)F)cc4)cc23)CC1` [Example 14, 4-((5-(4-cyanopiperidin-1-yl)-2,6-naphthyridin-3-yl)amino)phenyl sulfurofluoridate], the IC50 in assay [1] and in assay [2] was more than 250 nM in each case.

Consider `N#CC1CCN(c2nccc3cnc(Nc4ccc(C(=O)NC5CCSC5=O)cc4)cc23)CC1` (centres unmarked) [Example 16, 4-((5-(4-cyanopiperidin-1-yl)-2,6-naphthyridin-3-yl)amino)-N-(2-oxotetrahydrothiophen-3-yl)benzamide], for which the IC50 in assay [1] (setting [3]) and in assay [2] (setting [4]) was more than 250 nM throughout.

For `CS(=O)(=O)N1CCC(Nc2cc3c(N4CCCCC4)nc(CO)cc3cn2)CC1` [Example 17, (7-((1-(methylsulfonyl)piperidin-4-yl)amino)-1-(piperidin-1-yl)-2,6-naphthyridin-3-yl)methanol], the IC50 in assay [1] (setting [3]) is more than 250 nM; in assay [2] (setting [5]), 25 to 250 nM.

For the compound `CS(=O)(=O)N1CCC(Nc2cc3c(N4CCCCC4)nc(CCO)cc3cn2)CC1` [Example 19, 2-(7-((1-(methylsulfonyl)piperidin-4-yl)amino)-1-(piperidin-1-yl)-2,6-naphthyridin-3-yl)ethan-1-ol], the IC50 was more than 250 nM in assay [1] (setting [3]) and 25 to 250 nM in assay [2] (setting [5]).

As to `Cc1cc2cnc(NC3CCN(S(C)(=O)=O)CC3)cc2c(N2CCCCC2)n1` [Example 25, 7-methyl-N-(1-(methylsulfonyl)piperidin-4-yl)-5-(piperidin-1-yl)-2,6-naphthyridin-3-amine], the IC50 in assay [1] (setting [3]) and in assay [2] (setting [4]) was more than 250 nM throughout.

As to `CS(=O)(=O)c1ccc(Nc2cc3c(C4=CCCCC4)ccnc3cn2)cc1` [Example 951, 4-(cyclohex-1-en-1-yl)-N-(4-(methylsulfonyl)phenyl)-1,7-naphthyridin-6-amine], the IC50 is more than 250 nM in assay [1] (0.5 nM CDK1/CCNB1, 1 mM ATP, read-out: CDK1/CCNB IC50 >250 nM) and more than 250 nM in assay [2] (3 nM CDK2/CCNE1, 1 mM ATP, read-out: CDK2/CCNE IC50 >250 nM).
